Where a name gives a salt, the structure may show the parent alone.
Columns and labels:
Na^+,K^+ -ATPase [1] = molecular target: T1, Na^+,K^+ -ATPase (Canis lupus familiaris, UniProt P50997); assay: biochemical
T1 construct: from tissue; the cited Jorgensen 1974 method uses outer medulla of mammalian kidney (own knowledge)
Source text: (§1) To test the affinity for the receptor site of the Na^+,K^+ -ATPase and the agonist or antagonist activity on the enzyme, the following tests were used:
b) inhibition of the activity of the purified Na^+,K^+ -ATPase measured as % of hydrolysis of ^32 P-ATP in presence and in absence of the tested compound (Doucet A. et al., Am. J. Physiol., 1986, 251, F851).

Na^+,K^+ -ATPase [2] = molecular target: T1, Na^+,K^+ -ATPase; assay: displacement of the specific ^3H-ouabain binding from the purified Na^+,K^+-ATPase receptor
Source text: as §1
a) displacement of the specific ^3 H-ouabain binding from the Na^+,K^+ -ATPase receptor purified according to Jorghensen (Jorghensen P., BBA, 1974, 356, 36) and Erdmann (Erdmann E. et al., Arzneim. Forsh, 1984, 34, 1314);

[3] = test system: spontaneous hypertensive rats (MHS); assay: effect of 5 week-treatment in spontaneous hypertensive rats (MHS) on the development of hypertension (tail cuff SBP and HR); type: in vivo, rat; conditions: 1 mg/Kg/os daily in Methocel 0.5% w/v, 5 weeks; for SBP (systolic blood pressure): controls (Methocel) 172 +/- 3.5; for HR (heart rate): controls (Methocel) 380 +/- 9.0
Protocol: To test the antihypertensive activity the following test was used:
systolic blood pressure (SBP) and heart rate (HR) were measured, by the tail cuff method, in young prehypertensive male rats (MHS or SHR) strains before the development of hypertension (4 weeks of age) for recording the basal values of SBP. Groups of 7 rats were formed and subdivided in control and treated groups. The compound, suspended in Methocel 0.5% (w/v), was orally given daily for at least 5 weeks to the treated groups. The control group received only Methocel. SBP and HR were measured weekly 6 and 24 hrs after treatment. After 5 weeks of treatment, when hypertension was fully developed in the control group (9 weeks of age), washout was started for at least one week, to verify whether the treatment mantained blood pressure low or reestablished the basal values.
(Takeda K. et al., Japan J. Pharmacol., 1979, 29,171; Takeda K. et al. Japan J. Pharmacol., 1982, 32, 283; Richer C. et al. Eur. J. Pharmacol, 1978, 47,393).

[4] = purified Na^+,K^+-ATPase, ^32P-ATP hydrolysis, read-out: Inhibitory Activity log IC50 (converted)
[5] = ^3H-ouabain displacement, purified Na^+,K^+-ATPase, read-out: Binding ^3 H-Ouab. Displacement log IC50 (converted)

Compound	IC50 (Na^+,K^+ -ATPase [1])	IC50 (Na^+,K^+ -ATPase [2])	SBP (systolic blood pressure) [3]	HR (heart rate) [3]	IC50 (Na^+,K^+ -ATPase [1]; [4])	IC50 (Na^+,K^+ -ATPase [2]; [5])
CC[C@@H](C/C=N/OCCN(C)C)[C@@]1(C)CC[C@H]2[C@@H](CC[C@@H]3C[C@@H](O)CC[C@@]32C)C1=O [Comp. I-as, E-17α-2-[(2-Dimethylaminoethoxy)iminomethyl]-5β-14,15-seco-3β-hydroxy-androstan-14-one oxalate]	1.26 µM	0.1 µM				
CC[C@@H](C/C=N/OCCN)[C@@]1(C)CC[C@H]2[C@@H](CC[C@H]3C[C@@H](O)CC[C@@]32C)C1=O [Comp. I-bg, E-17α-2-[(2-Aminoethoxy)iminomethyl]-14,15-seco-3β-hydroxy-androstan-14-one oxalate]	1 µM	0.158 µM	151 +/- 5.2 mm Hg	388 +/- 9.0 beats/min.		
C[C@@H](C/C=N/OCCN)[C@@]1(C)CC[C@H]2[C@@H](CC[C@@H]3C[C@@H](O)CC[C@@]32C)C1=O [Comp. I-ae, E-17β-Methyl-15-[(2-aminoethoxy)imino]-5β-14,15-seco-3β-hydroxy-androstan-14-one oxalate]			149 +/- 3.7 mm Hg	370 +/- 11.2 beats/min.		
CC[C@@H](C/C=C/C=N/OCCN(C)C)[C@@]1(C)CC[C@H]2[C@@H](CC[C@@H]3C[C@@H](O)CC[C@@]32C)C1=O [Comp. I-be, E,E-17α-4-[(2-Dimethylaminoethoxyimino)-2-butenyl]-5β-14,15-seco-3β-hydroxy-androstan-14-one oxalate]			150 +/- 5.1 mm Hg	384 +/- 7.9 beats/min.	6.31 µM	0.316 µM
CC[C@@H](C/C=N/OCCN)[C@@]1(C)CC[C@H]2[C@@H](CC[C@@H]3C[C@@H](O)CC[C@@]32C)C1=O [Comp. I-ao, E-17α-2-[(2-Aminoethoxy)iminomethyl]-5β-14,15-seco-3β-hydroxy-androstan-14-one oxalate]	0.2 µM	0.0398 µM				
C[C@@H](C/C=N/OCCN(C)C)[C@@]1(C)CC[C@H]2[C@@H](CC[C@@H]3C[C@@H](O)CC[C@@]32C)C1=O [Comp. I-ag, E-17β-Methyl-15-[(2-dimethylaminoethoxy)imino]-5β-14,15-seco-3β-hydroxy-androstan-14-one oxalate]			154 +/- 4.8 mm Hg	390 +/- 5.9 beats/min.		
CC[C@@H](/C=N/OCCN(C)C)[C@@]1(C)CC[C@H]2[C@@H](CC[C@@H]3C[C@@H](O)CC[C@@]32C)C1=O [Comp. I-ak, E-17β-2-[(2-Dimethylaminoethoxy)iminomethyl]-5β-14,15-seco-3β-hydroxy-androstan-14-one oxalate]			153 +/- 6.3 mm Hg	380 +/- 10.0 beats/min.	7.94 µM	0.501 µM
CC[C@@H](C/C=N/NC(=N)N)[C@@]1(C)CC[C@H]2[C@@H](CC[C@@H]3C[C@@H](O)CC[C@@]32C)C1=O [Comp. I-ay, E-17α-2-(2-Guanidinoiminoethyl)-5β-14,15-seco-3β-hydroxy-androstan-14-one oxalate]					3.16 µM	0.398 µM
CC[C@H](C/C=N/OCCN(C)C)[C@@]1(C)CC[C@H]2[C@@H](CC[C@@H]3C[C@@H](O)CC[C@@]32C)C1=O [Comp. I-aq, E-17β-2-[(2-Dimethylaminoethoxy)iminomethyl]-5β-14,15-seco-3β-hydroxy-androstan-14-one oxalate]	12.6 µM	0.794 µM				
CC[C@@H](C/C=N/OCCN(C)C)[C@@]1(C)CC[C@H]2[C@@H](CC[C@H]3C[C@@H](O)CC[C@@]32C)C1=O [Comp. I-bi, E-17α-2-[(2-Dimethylaminoethoxy)iminomethyl]-14,15-seco-3β-hydroxy-androstan-14-one oxalate]	10 µM	2 µM				
CC[C@H](/C=N/OCCN(C)C)[C@@]1(C)CC[C@H]2[C@@H](CC[C@@H]3C[C@@H](O)CC[C@@]32C)C1=O [Comp. I-ai, E-17β-2-[(2-Dimethylaminoethoxy)iminomethyl]-5β-14,15-seco-3β-hydroxy-androstan-14-one oxalate]					100 µM	3.98 µM
